Measured values published in patent US20110301142A1, “ANTAGONISTS OF LYSOPHOSPHATIDIC ACID RECEPTORS” (priority 2008, published 2011).
pIC50: −log10 of the molar value.

Legend:
human LPA1 = biological target: T1, human LPA1 (Homo sapiens, UniProt Q92633); assay: LPA1 calcium flux assay (HLPA1 Ca Flux); format: cell-based; details: Human LPA1 expressing CHO cells, stimulated with 10 nM LPA
T1 construct: the full-length cDNA for human LPA1 was obtained by PCR of the reverse transcription reaction; expressed in transfected cells
Procedure, shortened: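 CHO cells stably expressing cloned human LPA1, serum-starved overnight and loaded with Calcium 4 dye, were preincubated 30 min at room temperature with compound. Cells were then challenged with 10 nM LPA and intracellular Ca2+ measured; IC50 values came from titration curves.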

human LPA3 = biological target: T2, human LPA3 (Homo sapiens, UniProt Q9UBY5); assay: LPA3 calcium flux assay; format: cell-based; details: Human LPA3 expressing CHO cells, stimulated with 10 nM LPA; read-out: HLPA3 Ca Flux IC50
T2 construct: The full-length cDNA fragment for human LPA3 was obtained by PCR from the vector; expressed in transfected cells; cDNA from the Missouri S&T cDNA Resource Center
T2 sequence (Q9UBY5 1-353): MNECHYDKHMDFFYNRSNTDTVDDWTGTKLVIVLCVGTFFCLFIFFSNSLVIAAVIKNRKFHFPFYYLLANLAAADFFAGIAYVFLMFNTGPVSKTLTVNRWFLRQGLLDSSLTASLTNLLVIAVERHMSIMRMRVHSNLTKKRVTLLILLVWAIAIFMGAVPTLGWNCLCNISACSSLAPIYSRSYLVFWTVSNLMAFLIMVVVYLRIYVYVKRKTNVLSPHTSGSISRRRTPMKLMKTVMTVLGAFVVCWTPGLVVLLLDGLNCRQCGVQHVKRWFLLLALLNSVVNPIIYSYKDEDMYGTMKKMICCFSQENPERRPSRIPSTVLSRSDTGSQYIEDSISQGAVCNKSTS
Procedure: A vector containing the human LPA3 receptor cDNA was obtained from the Missouri S&T cDNA Resource Center (www.cdna.org). The full-length cDNA fragment for human LPA3 was obtained by PCR from the vector. The nucleotide sequence of the cloned human LPA3 was determined by sequencing and confirmed to be identical to the published human LPA3 sequence (NCBI accession number NM 012152). The cDNA was cloned into the pcDNA5/FRT expression plasmid and transfected in CHO cells using lipofectamine 2000 (Invitrogen Corp., USA). Clones stably expressing human LPA3 were selected using hygromycin and identified as cells that show Ca-influx in response to LPA.
Human LPA1 or LPA3 expressing CHO cells are seeded at 20,000-45,000 cells per well in a 96-well poly-D-lysine coated plate one or two days before the assay. Prior to the assay, the cells are washed once with PBS and then cultured in serum-free media overnight. On the day of the assay, a calcium indicator dye (Calcium 4, Molecular Devices) in assay buffer (HBSS with Ca^2+ and Mg^2+ and containing 20 mM Hepes and 0.3% fatty-acid free human serum albumin) is added to each well and incubation continued for 1 hour at 37° C. 10 μl of test compounds in 2.5% DMSO are added to the cells and incubation continued at room temperature for 30 minutes. Cells are the stimulated by the addition of 10 nM LPA and intracellular Ca^2+ measured using the Flexstation 3 (Molecular Devices). IC50s are determined using Graphpad prism analysis of drug titration curves.

T1 sequence (Q92633 whole entry): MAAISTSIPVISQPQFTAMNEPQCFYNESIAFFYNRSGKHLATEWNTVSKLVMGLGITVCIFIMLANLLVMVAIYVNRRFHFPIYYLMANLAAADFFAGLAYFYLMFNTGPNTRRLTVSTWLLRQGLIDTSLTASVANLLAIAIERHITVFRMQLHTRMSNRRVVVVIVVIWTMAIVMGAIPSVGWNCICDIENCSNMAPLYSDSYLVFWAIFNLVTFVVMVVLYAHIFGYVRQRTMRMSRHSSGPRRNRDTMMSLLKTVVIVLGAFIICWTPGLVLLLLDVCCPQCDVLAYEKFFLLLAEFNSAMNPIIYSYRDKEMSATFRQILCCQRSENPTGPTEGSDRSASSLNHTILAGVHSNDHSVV

## Cc1noc(-c2ccc(-c3ccc(C(=O)O)nc3)cc2)c1NC(=O)OC(C)c1ccccc1Cl (centres unmarked) [Compound 1-56, 5-(4-{4-[1-(2-Chloro-phenyl)-ethoxycarbonylamino]-3-methyl-isoxazol-5-yl}-phenyl)-pyridine-2-carboxylic acid]
Human LPA1
  pIC50: > 6.52
Human LPA3
  pIC50: 4.30 to 6.00

## Cc1noc(-c2ccc(-c3ccccc3CC(=O)O)cc2)c1NC(=O)OC(C)c1ccccc1Cl (centres unmarked) [Compound 1-57, (4′-{4-[1-(2-Chloro-phenyl)-ethoxycarbonylamino]-3-methyl-isoxazol-5-yl}-biphenyl-2-yl)-acetic acid]
Human LPA1
  pIC50: > 6.52
Human LPA3
  pIC50: 4.30 to 6.00

## Cc1noc(-c2ccc(-c3ccc(CC(=O)O)cc3)cc2)c1NC(=O)OC(C)c1ccccc1Cl (centres unmarked) [Compound 1-58, (4′-{4-[1-(2-Chloro-phenyl)-ethoxycarbonylamino]-3-methyl-isoxazol-5-yl}-biphenyl-4-yl)-acetic acid]
Human LPA1
  pIC50: > 6.52
Human LPA3
  pIC50: 4.30 to 6.00

## Cc1noc(-c2ccc(-c3cccc(CC(=O)O)c3)cc2)c1NC(=O)OC(C)c1ccccc1Cl (centres unmarked) [Compound 1-59, (4′-{4-[1-(2-Chloro-phenyl)-ethoxycarbonylamino]-3-methyl-isoxazol-5-yl}-biphenyl-3-yl)-acetic acid]
Human LPA1
  pIC50: > 6.52
Human LPA3
  pIC50: 4.30 to 6.00

## Cc1noc(-c2cccc(-c3cccc(CC(=O)O)c3)c2)c1NC(=O)OC(C)c1ccccc1Cl (centres unmarked) [Compound 1-60, (3′-{4-[1-(2-Chloro-phenyl)-ethoxycarbonylamino]-3-methyl-isoxazol-5-yl}-biphenyl-3-yl)-acetic acid]
Human LPA1
  pIC50: 4.30 to 6.00
Human LPA3
  pIC50: 4.30 to 6.00

## Cc1noc(-c2ccc(-c3ccc(CC(=O)O)cn3)cc2)c1NC(=O)OC(C)c1ccccc1Cl (centres unmarked) [Compound 1-61, [6-(4-{4-[1-(2-Chloro-phenyl)-ethoxycarbonylamino]-3-methyl-isoxazol-5-yl}-phenyl)-pyridin-3-yl]-acetic acid]
Human LPA1
  pIC50: > 6.52
Human LPA3
  pIC50: 4.30 to 6.00

## Cc1noc(-c2ccc(-c3ccc(CCC(=O)O)cc3)cc2)c1NC(=O)OC(C)c1ccccc1Cl (centres unmarked) [Compound 1-62, 3-(4′-{4-[1-(2-Chloro-phenyl)-ethoxycarbonylamino]-3-methyl-isoxazol-5-yl}-biphenyl-4-yl)-propionic acid]
Human LPA1
  pIC50: > 6.52
Human LPA3
  pIC50: 4.30 to 6.00

## Cc1noc(-c2ccc(-c3cncc(CC(=O)O)c3)cc2)c1NC(=O)OC(C)c1ccccc1Cl (centres unmarked) [Compound 1-63, [5-(4-{4-[1-(2-Chloro-phenyl)-ethoxycarbonylamino]-3-methyl-isoxazol-5-yl}-phenyl)-pyridin-3-yl]-acetic acid]
Human LPA1
  pIC50: > 6.52
Human LPA3
  pIC50: 4.30 to 6.00

## Cc1noc(-c2ccc(-c3cc(CC(=O)O)ccc3F)cc2)c1NC(=O)OC(C)c1ccccc1Cl (centres unmarked) [Compound 1-64, (4′-{4-[1-(2-Chloro-phenyl)-ethoxycarbonylamino]-3-methyl-isoxazol-5-yl}-6-fluoro-biphenyl-3-yl)-acetic acid]
Human LPA1
  pIC50: > 6.52
Human LPA3
  pIC50: 4.30 to 6.00

## Cc1noc(-c2ccc(-c3ccc(F)c(CC(=O)O)c3)cc2)c1NC(=O)OC(C)c1ccccc1Cl (centres unmarked) [Compound 1-65, (4′-{4-[1-(2-Chloro-phenyl)-ethoxycarbonylamino]-3-methyl-isoxazol-5-yl}-4-fluoro-biphenyl-3-yl)-acetic acid]
Human LPA1
  pIC50: > 6.52
Human LPA3
  pIC50: 4.30 to 6.00

## Cc1noc(-c2ccc(C3=CCC(C(=O)O)CC3)cc2)c1NC(=O)OC(C)c1ccccc1Cl (centres unmarked) [Compound 1-66, 4-(4-{4-[1-(2-Chloro-phenyl)-ethoxycarbonylamino]-3-methyl-isoxazol-5-yl}-phenyl)-cyclohex-3-enecarboxylic acid]
Human LPA1
  pIC50: > 6.52
Human LPA3
  pIC50: 4.30 to 6.00

## Cc1noc(-c2ccc(C3CCC(C(=O)O)CC3)cc2)c1NC(=O)OC(C)c1ccccc1Cl (centres unmarked) [Compound 1-67, 4-(4-{4-[1-(2-Chloro-phenyl)-ethoxycarbonylamino]-3-methyl-isoxazol-5-yl}-phenyl)-cyclohexanecarboxylic acid]
Human LPA1
  pIC50: > 6.52
Human LPA3
  pIC50: 4.30 to 6.00

## COC(=O)Cc1ccc(-c2ccc(-c3onc(C)c3NC(=O)OC(C)c3ccccc3Cl)cc2)cc1 (centres unmarked) [Compound 1-69, (4′-{4-[1-(2-Chloro-phenyl)-ethoxycarbonylamino]-3-methyl-isoxazol-5-yl}-biphenyl-4-yl)-acetic acid methyl ester]
Human LPA1
  pIC50: > 6.52
Human LPA3
  pIC50: 4.30 to 6.00

## Cc1noc(-c2ccc(-c3ccc(C(C)C(=O)O)cc3)cc2)c1NC(=O)OC(C)c1ccccc1Cl (centres unmarked) [Compound 1-71, 2-(4′-{4-[1-(2-Chloro-phenyl)-ethoxycarbonylamino]-3-methyl-isoxazol-5-yl}-biphenyl-4-yl)-propionic acid]
Human LPA1
  pIC50: > 6.52
Human LPA3
  pIC50: 4.30 to 6.00

## Cc1noc(-c2ccc(-c3ccc(C(C)C(=O)O)cc3)cc2)c1NC(=O)OC(C)c1ccccc1F (centres unmarked) [Compound 1-74, 2-(4′-{4-[1-(2-Fluoro-phenyl)-ethoxycarbonylamino]-3-methyl-isoxazol-5-yl}-biphenyl-4-yl)-propionic acid]
Human LPA1
  pIC50: > 6.52
Human LPA3
  pIC50: 4.30 to 6.00

## Cc1noc(-c2ccc(-c3cccc(C(=O)O)c3)cc2)c1NC(=O)OC(C)c1ccccc1Cl (centres unmarked) [Compound 1-76, 4′-{4-[1-(2-Chloro-phenyl)-ethoxycarbonylamino]-3-methyl-isoxazol-5-yl}-biphenyl-3-carboxylic acid]
Human LPA1
  pIC50: > 6.52
Human LPA3
  pIC50: 4.30 to 6.00

## Cc1noc(-c2ccc(-c3ccc(CC(=O)O)cc3)cc2)c1NC(=O)OC(C)c1ccc(Cl)cc1F (centres unmarked) [Compound 1-77, (4′-{4-[1-(4-Chloro-2-fluoro-phenyl)-ethoxycarbonylamino]-3-methyl-isoxazol-5-yl}-biphenyl-4-yl)-acetic acid]
Human LPA1
  pIC50: > 6.52
Human LPA3
  pIC50: 4.30 to 6.00

## Cc1noc(-c2ccc(-c3ccc(CC(=O)O)cc3)cc2)c1NC(=O)O[C@H](C)c1ccccc1F [Compound 1-78, (4′-{4-[(R)-1-(2-Fluoro-phenyl)-ethoxycarbonylamino]-3-methyl-isoxazol-5-yl}-biphenyl-4-yl)-acetic acid]
Human LPA1
  pIC50: > 6.52
Human LPA3
  pIC50: 4.30 to 6.00

## Cc1noc(-c2ccc(COc3ccccc3CC(=O)O)cc2)c1NC(=O)OC(C)c1ccccc1Cl (centres unmarked) [Compound 1-79, [2-(4-{4-[1-(2-Chloro-phenyl)-ethoxycarbonylamino]-3-methyl-isoxazol-5-yl}-benzyloxy)-phenyl]-acetic acid]
Human LPA1
  pIC50: > 6.52
Human LPA3
  pIC50: 4.30 to 6.00

## Cc1noc(-c2ccc(Cc3cccc(CC(=O)O)c3)cc2)c1NC(=O)O[C@H](C)c1ccccc1F [Compound 1-80, [3-(4-{4-[(R)-1-(2-Fluoro-phenyl)-ethoxycarbonylamino]-3-methyl-isoxazol-5-yl}-benzyl)-phenyl]acetic acid]
Human LPA1
  pIC50: > 6.52
Human LPA3
  pIC50: 4.30 to 6.00

## Cc1noc(-c2ccc(Cc3ccc(CC(=O)O)cc3)cc2)c1NC(=O)O[C@H](C)c1ccccc1F [Compound 1-81, [4-(4-{4-[(R)-1-(2-Fluoro-phenyl)-ethoxycarbonylamino]-3-methyl-isoxazol-5-yl}-benzyl)-phenyl]-acetic acid]
Human LPA1
  pIC50: > 6.52
Human LPA3
  pIC50: 4.30 to 6.00

## Cc1noc(-c2ccc(Oc3ccc(CC(=O)O)cc3)cc2)c1NC(=O)O[C@H](C)c1ccccc1F [Compound 1-84, [4-(4-{4-[(R)-1-(2-Fluoro-phenyl)-ethoxycarbonylamino]-3-methyl-isoxazol-5-yl}-phenoxy)-phenyl]-acetic acid]
Human LPA1
  pIC50: > 6.52
Human LPA3
  pIC50: 4.30 to 6.00

## Cc1cc(-c2onc(C)c2NC(=O)O[C@H](C)c2ccccc2F)ccc1-c1ccc(CC(=O)O)cc1 [Compound 1-85, (4′-{4-[(R)-1-(2-Fluoro-phenyl)-ethoxycarbonylamino]-3-methyl-isoxazol-5-yl}-2′-methyl-biphenyl-4-yl)-acetic acid]
Human LPA1
  pIC50: > 6.52
Human LPA3
  pIC50: 4.30 to 6.00

## Cc1noc(-c2ccc(-c3ccc(C(C)(C)C(=O)O)cc3)cc2)c1NC(=O)OC(C)c1ccccc1F (centres unmarked) [Compound 1-86, 2-(4′-{4-[1-(2-Fluoro-phenyl)-ethoxycarbonylamino]-3-methyl-isoxazol-5-yl}-biphenyl-4-yl)-2-methyl-propionic acid]
Human LPA1
  pIC50: > 6.52
Human LPA3
  pIC50: 4.30 to 6.00

## Cc1noc(-c2ccc(-c3ccc(C(C)(C)C(=O)O)cn3)cc2)c1NC(=O)OC(C)c1ccccc1F (centres unmarked) [Compound 1-87, 2-[6-(4-{4-[1-(2-Fluoro-phenyl)-ethoxycarbonylamino]-3-methyl-isoxazol-5-yl}-phenyl)-pyridin-3-yl]-2-methyl-propionic acid]
Human LPA1
  pIC50: > 6.52
Human LPA3
  pIC50: 4.30 to 6.00
